Laboratory results reported in patent publication US20250090510A1, “eIF4G1-eIF1 INHIBITORS AND USE THEREOF” (YEDA RESEARCH AND DEVELOPMENT CO. LTD., priority 2022, published 2025).

Key:
[1] = system: MCF7; test: CellTiter-Glo luminescent cell viability assay; assay type: cell-based; details: breast cancer (MCF7), increasing concentrations, 48 h
Protocol: (§1) FIGS. 3A-F: i14G1-10 and i14G1-12 inhibit mRNA translation and sensitize cell survival of eIF4G1 and eIF1 depleted cells. (3A) In-vitro translation using rabbit reticulocyte lysate which was pre-incubated with different concentrations of i14G1-10 or i14G1-12 for 10 minutes followed by the addition of capped firefly luciferase mRNA. After 90 minutes at 30° C., the luminescence signal was measured and the IC50 was calculated. The data represents mean±SEM of 6 independent repeats. (3B) HEK293T cells were treated with DMSO (vehicle control), and sub-cytotoxic concentrations of i14G1-10 (20 μM) and i14G1-12 (10 μM) for 3h. Cell lysates were then subjected to sucrose gradient sedimentation to obtain polysome profiles. (3C) HEK293T cells were treated with the indicated concentrations of i14G1-10 and i14G-12 for 3 h, followed by the addition of puromycin (10 μg/ml) for 5 minutes, after which cells were lysed and analyzed by western blot using an anti-puromycin antibody and anti-GAPDH antibody that serves as a loading control. The graph represents the mean±SEM chemiluminescence signal intensity of puromycin labeling normalized to GAPDH of 3 independent experiments. The calculated IC-50 is shown. (3D) HEK293T cells were transfected with either control or eIF4G1 siRNA in the absence or presence of eIF4G1 expression plasmid. As the eIF4G1 siRNA pool is directed against the 3′UTR, which is absent from the eIF4G1 expression plasmid, the exogenous eIF4G1 is resistant to the siRNA. 48 h after transfection, cells were treated with the indicated concentrations of i14G1-10 and i14G-12 for 3 h, followed by a 5 minutes puromycin pulse as described in 3C. The graph represents the mean±SEM chemiluminescence signal intensity of puromycin labeling normalized to GAPDH of 3 independent experiments. The calculated IC-50 is shown. (3E) The graphs represent cell viability of the indicated cell lines in the presence of increasing concentrations of i14G1-10 and i14G1, analyzed by Luminescent Cell Viability Assay. (3F) Pie charts showing the cell cycle distribution of HEK293T cells treated with DMSO, i14G1-10 and i14G1-12.
(§2) The indicated cell lines in 96-well plates were treated with increasing concentrations of i14G1-10 and i14G1-12. After 48 h, cells were subjected to cell viability measurement using CellTiter-Glo Luminescent Assay (Cat no. G7571, Promega).
(§3) This was true in breast cancer (MCF7), lung cancer (A549), colorectal cancer (HCT116), ovarian cancer (OVCAR8) and in a bone cancer sarcoma cell line (U20S). To examine whether the growth defect is associated with cell cycle progression, control and drug treated cells were subjected to DNA staining by propidium iodide and then a flow cytometry analysis to determine their distribution in the sub-G1 (dead cells), G1, S and G2/M phases of the cell cycle.

[2] = system: U20S; test: CellTiter-Glo luminescent cell viability assay; assay type: cell-based; details: bone cancer sarcoma cell line (U20S), increasing concentrations, 48 h
Protocol: as §1, §2, §3

| Structure (SMILES) | growth/survival [1] | growth/survival [2] |
| --- | --- | --- |
| O=C(/C=C/Sc1ccc(C(F)(F)F)cn1)c1ccccc1 [i14G1-10] | inhibited the growth/survival | inhibited the growth/survival |
| Cn1ccnc1S/C(=C/C=C(C#N)C#N)c1ccc(Cl)cc1 [i14G1-12] | inhibited the growth/survival | inhibited the growth/survival |
